Reference: paper PMC5651866, “Halogenated Chrysins Inhibit Dengue and Zika Virus Infectivity” (Scientific Reports, 2017)

Legend:
[1] = Cytotoxicity study (CellTiter 96 AQueous One) in THP-1 cells; assay type: cell-based; conditions: human, THP-1 cells, read-out: Cells viability (%, means ± SEM) THP-1
Protocol: (§1) The cytotoxicity of active compounds was tested on LLC-MK2, Vero, THP-1, HEK-293, HepG2 and C6/36 cell lines. Each cell line was seeded at 1 × 10^4 cells per well in 96-well plates and incubated overnight. The compounds were added at the indicated concentrations and the cells were incubated for 48 h, unless indicated otherwise. Cell viability was analyzed using CellTiter 96® AQueous One Solution Cell Proliferation Assay kit (Promega, Wisconsin-Madison, USA) according to manufacturer’s protocol. The plate was read at the A 450 in a VICTORTM × 3 microplate reader (PerkinElmer, Massachusetts, USA). Percent cell viability in compound-treated wells was calculated using reference DMSO-treated cells as a 100% cell viability control. The CC50 values of LLC/MK2 cells were calculated using nonlinear regression analysis. Results were reported as means and standard error of the means (SEM) of CC50 values of three independent experiments in which each drug concentration was tested in triplicate.

DENV3 (16562) = assay: Antiviral efficacy (EC50) in virus infected LLC/MK2 cells, plaque assay; assay type: cell-based, Dengue virus
Protocol: Compound at various concentrations were added to virus infected LLC/MK2 cells and viral titers were accessed by plaque titration of supernatants as previously described.
LLC/MK2 cells were seeded at 5 × 10^4 cells into each well of 24-well plate and incubated overnight at 37 °C under 5% CO2. Cells were infected with DENV2 at the multiplicity of infection (M.O.I.) of 0.1, unless indicated otherwise, for 1 h with gentle rocking every 15 min. Cells were washed with phosphate buffer saline (PBS) and incubated with 1 ml of MEM medium supplemented with 1% FBS as previously described. The compounds were prepared in dimethylsulfoxide (DMSO) at the indicated concentrations before addition to viral infected cells. Supernatants were collected after 5 day incubation and analyzed by plaque titration[9].
Compounds were prepared in DMSO at 8–12 different concentrations and added to virus infected cells as previously described. Supernatants were collected and the EC50 values were calculated from nonlinear regression analysis.

DENV2 = assay: Attachment inhibition study, DENV2 with LLC/MK2 cells; assay type: cell-based, Dengue virus; conditions: 10 µM
Protocol: We further explored whether the compound would block the viral infectivity by neutralization. We set up the attachment inhibition assay by incubating DENV2 with LLC/MK2 cells at 4 °C for 1 h and FV13 was added before adsorption (pre-attachment), simultaneous with adsorption (co-attachment), and after adsorption (post-attachment) (Fig. 5A). DMSO was used as a mock treatment and added in parallel to FV13 to the experiment. Cells were incubated until cytopathic effects appeared under microscope (Fig. 5B). Supernatants and cells were then analyzed by plaque titration (Fig. 5C) and RT-qPCR (Fig. 5D), respectively. […] Therefore, the major targets of FV13 inhibition appear to function after attachment, possibly at the fusion or translation steps. […] (Supplementary 1). Therefore, fusion was unlikely the major target of FV13. We concluded that one of the major targets of FV13 functions early after infection and attachment and fusion are not critically affected. Flavivirus translation initiates within 1 to 5 hpi[26].
After supernatant collection, the remaining cells in experimental plates were extracted for viral RNAs using TRIzol reagent (Invitrogen, California, USA) according to the manufacturer’s protocol. The samples were loaded into the Direct-zol™ RNA MiniPrep (Zymo research, California, USA) and quantified by Nanodrop spectrophotometry (Eppendorf, New York, USA). The RT-qPCR was performed with a Step-OnePlus Real-Time PCR System (Applied Biosystems, California, USA.) with 1 × Power SYBRGreen PCR Master Mix, 400 nM each of capsid primers[40] or 250 nM of NS1 primers[41] and 0.1 µg of total RNA. The reactions were then cycled at 48 °C 30 min and 95 °C 10 min, followed by 45 cycles of 95 °C for 20 s (denaturation), 55 °C for 30 s (annealing), 72 °C for 30 s (extension). Each sample was analyzed in triplicated and results were confirmed by two independent experiments.
The attachment assay was adapted from Lani et al., 2016 and Jin et al., 2015 [42],[43]. Briefly, LLC/MK2 cells were seeded in 24-well plates and incubated as previously described. […]

Vero cells = assay: Cytotoxicity study (CellTiter 96 AQueous One) in Vero cells; assay type: cell-based; conditions: 10 and 25 µM; in words
Protocol: as §1

[2] = as above; assay type: cell-based; conditions: African green monkey, Vero cells, 48 h, read-out: Cells viability (%, means ± SEM) Vero
Protocol: as §1

[3] = Viability of DENV2/BHK-21 replicon cells; assay type: cell-based; conditions: hamster, 5 and 10 µM, read-out: viable replicon cells
Protocol: Next, we studied FV13 inhibition in a DENV2 replicon replication system to investigate whether translation and replication could be implicated as drug targets. BHK-21/DENV2 replicon cells[28] were treated with 5 and 10 µM FV13 and incubated for 72 h before measuring replication efficiency by quantifying replicon RNA. Ribavirin, a known dengue virus replication inhibitor[29], was used as a positive control.
Figure 6 Replicon inhibition study. (A) DENV2/BHK-21 replicon cells were treated with FV13 or ribavirin for 72 h. Percent inhibition was calculated from RT-qPCR of extracted RNA. Error bars represented standard error of means (SEM) from two independent experiments with triplicate samples. Asterisks indicated statistical significance in paired t-test as follows; *p-value < 0.05, **p-value < 0.01, ***p-value < 0.001 compared to 1% DMSO negative control. (B) Percent DENV2/BHK-21 replicon cell viability at 72 h under 5 and 10 µM FV13 treatment. Error bars represented standard error of means (SEM) from three independent experiments, in which each experiment was performed in triplicate.

DENV2 NS2B/3 protease = biological target: T1, DENV2 NS2B/3 protease (Dengue virus type 2, UniProt P14340); assay: In vitro protease assay; assay type: biochemical; conditions: in words
T1 construct: DENV2 NS2BH-(QR)-NS3pro enzyme3
T1 sequence (P14340 1398-1437): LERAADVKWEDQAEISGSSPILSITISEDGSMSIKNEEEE
T1 sequence (P14340 1476-1653): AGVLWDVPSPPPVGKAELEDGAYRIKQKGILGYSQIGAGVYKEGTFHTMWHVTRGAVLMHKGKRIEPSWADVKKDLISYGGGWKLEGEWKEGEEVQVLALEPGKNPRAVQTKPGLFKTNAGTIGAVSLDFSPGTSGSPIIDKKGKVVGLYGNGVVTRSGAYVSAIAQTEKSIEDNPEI
Protocol: Assays were performed in triplicate in a 96-well half area black plate
(Greiner Bio-One, Monroe, NC, USA). The reaction mixture (100 μl) contained
200 mM Tris-HCl, pH 9.5, 30% glycerol, 0.1% CHAPS, 1% DMSO, 50 nM
DENV2 NS2BH-(QR)-NS3pro enzyme3, 10 µM fluorogenic tetrapeptide
substrate, Bz-Nle-Lys-Arg-Arg-AMC, and designated concentrations of
compounds in DMSO (concentration of 1%). The compound-enzyme mixture
was pre-incubated for 15 min at room temperature before addition of the
substrate. The reaction was continued at 37 οC for 30 min. The release of AMC
from the substrate was recorded every 1.5 min at 380 nm excitation and 460 nm
emission in a SpectraMax Gemini EM spectrofluorometer (Molecular Devices,
Sunnyvale, CA). DMSO alone (concentration of 1%) was used as the no-inhibitor
control (100% protease activity) and the bovine pancreatic trypsin inhibitor
protease, was used at 5 µM in DMSO concentration of 1% as a positive control
(0% protease activity). Data were plotted and reported as percent inhibition of
each compound to protease activity.
The in vitro enzymatic protease assay. Compounds were prepared three
concentrations and mixed with protein, added substrate (Bz)-Nle-Arg-arg-AMC
and measured at 460 nm with an excitation at 380 nm.

O=c1cc(-c2ccccc2)oc2c(Br)c(O)c(Br)c(O)c12 [FV13, 6,8-dibromo-5,7-dihydroxyflavone]
viability at 48 h, 10 µM ([1]; 10 μM): > 100% | viability at 48 h, 25 µM ([1]; 25 μM): 86.9 ± 2.1% | S.I. Selectivity index (CC50/EC50) (DENV3 (16562); DENV3 (16562), CC50 in LLC/MK2): 19.22 | EC50 (DENV3 (16562); Dengue virus, DENV3, LLC-MK2): 2320 ± 1460 nM | viral RNA reduction (DENV2; post-attachment, intracellular RNA, RT-qPCR): 64.07 ± 3.37% | plaque titer reduction (DENV2; post-attachment, supernatants, 2 days): 40.59 ± 2.83% | interference with pre- or co-attachment steps (DENV2; pre-attachment and co-attachment, in words): did not interfere with either pre- or co-attachment steps | sensitivity of Vero cells to the compound (Vero cells): very sensitive | viability at 48 h, 10 µM ([2]; 10 μM): 53.1 ± 4.9% | viability at 48 h, 25 µM ([2]; 25 μM): 42.6 ± 0.65% | viability at 72 h [3]: > 99% | targeting of DENV2 protease in the in vitro protease assay (DENV2 NS2B/3 protease): did not target DENV2 protease
